Measurements: paper PMC4876444, “Two-Photon Enzymatic Probes Visualizing Sub-cellular/Deep-brain Caspase Activities in Neurodegenerative Models” (Scientific Reports, 2016)
One block for each compound: values may come before it. Where a SMILES comes first, the peptide text is derived from it. The star is where a group is joined. NH(6-Ac-2-naphthyl) = CC(=O)c1ccc2cc(N*)ccc2c1

How the values were obtained:
[1] = test system: caspase-1 in primary cortical neurons; assay: TPFM of caspase-1 activation in glucose-deprived primary cortical neurons; type: cell-based, mouse; settings: 50 μM, added 1 h prior to the probe (t = 7 h during GD)
Method: NC: neuron cells incubated in normal neurobasal medium.
All two-photon images were taken on a Leica TCS SP5X Confocal Microscope System. […] Dissociated neuron-enriched cell cultures of cerebral cortex were established from day 16 C57BL/6 mouse embryos, as described[53]. Primary neurons were cultured in the neurobasal medium (Gibco) with 2% B27 and 0.5 mM GlutaMAX. Experiments were performed in 7–9 day-old cultures. For glucose-deprivation studies, glucose-free neurobasal medium was used (with other components fixed). The cultured neurons were incubated in glucose-free medium for 8 h, while control cells were incubated in normal neurobasal medium.
Caspase-1-like activities detected in primary cortical neurons of C57BL/6 mouse underwent
glucose-deprivation (GD) treatment.
neurons grown in normal culture medium and incubated with C1RB/C1FS for 1 h (NC). Panels 2/5: primary neuron
underwent GD induction for 8 h and incubated with C1RB/C1FS for 1 h.
(50 μM) was added 1 h earlier (t = 7 h) than C1RB/C1FS.
TPFM imaging of caspase activities in primary cortical neurons and fresh tissues.
Dissociated neuron-enriched cell cultures of cerebral cortex were established from day 16 C57BL/6 mouse embryos, as described.14 Primary neurons were cultured in the neurobasal medium (Gibco) with 2% B27 and 0.5 mM GlutaMAX. Experiments were performed in 7-9 day-old cultures. […]

[2] = test system: NIH/3T3, BV2 and HeLa cells; assay: XTT cytotoxicity assay; type: cell-based, mouse, human; settings: XTT assay, 12, 30, 60, 120 μM, 24 h
Method: Supplementary Figure 4. Cytotoxicity of two-photon enzymatic probes (12, 30, 60, 120 μM) in mammalian cells (NIH/3T3, BV2 and HeLa) after incubation for 24 h, as determined by XTT assay. […]
Detection of caspase activities in mammalian cells and tissues
Cell culture. The mouse embryonic fibroblast cell line (NIH/3T3), mouse microglial cell line (BV2) and human epithelial carcinoma cell line (HeLa) used in our experiments were cultured in Dulbecco’s Modified Eagle's Medium (DMEM) supplemented with 10% (for NIH/3T3 and HeLa) or 5% (for BV2) fetal bovine serum (FBS), 100.0 mg/L streptomycin and 100 IU/mL penicillin in a humidified atmosphere of 5% CO2 at 37 °C.
XTT assay. The cytotoxicity of our probes was determined by using the XTT colorimetric cell proliferation kit (Roche) following manufacturer’s guidelines. Briefly, NIH/3T3, BV2 and HeLa cells were seeded in 20~30% confluency (since they will reach >50% confluency within 24 h) into 96-well plates and incubated overnight before the addition of probes with concentrations of 12 μM, 30 μM, 60 μM and 120 μM, respectively. Probes were applied from DMSO stocks whereby DMSO never exceeded 1% in the final solution. The same volume of DMSO was used as a negative control; and the same volume of STS (200 nM) was used as a positive control. After a total treatment time of 24 h, proliferation was assayed using the XTT assay (Supplementary Fig. 4). […]

[3] = not given; remark: listed apart in the source
caspase-1 = molecular target: T1, caspase-1 (Homo sapiens, UniProt P29466); assay: S/N ratio of caspase-1 probes in BV2 lysates spiked with caspase-1; type: biochemical; settings: probe 6 μM, 25 μg BV2 lysates spiked with caspase-1, 37 °C, 2 h; among the four caspase-1 probes
T1 construct: purchased Merck
T1 sequence (P29466 120-297 limits assumed): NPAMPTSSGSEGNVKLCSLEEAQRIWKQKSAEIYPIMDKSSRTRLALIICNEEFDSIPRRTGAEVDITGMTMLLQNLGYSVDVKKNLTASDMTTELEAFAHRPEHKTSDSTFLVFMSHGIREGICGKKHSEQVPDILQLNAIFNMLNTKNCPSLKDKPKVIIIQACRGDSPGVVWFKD
T1 sequence (P29466 317-404 limits assumed): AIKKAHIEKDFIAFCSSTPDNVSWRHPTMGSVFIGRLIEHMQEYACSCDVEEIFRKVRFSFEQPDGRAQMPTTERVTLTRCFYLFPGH
Method: Figure 2 Photophysical and enzymatic properties of caspase probes. (a) Photophysical and kinetic properties of probes and free dyes. All measurements were taken in 50 mM HEPES, 50 mM NaCl, 0.1% CHAPS, 10 mM EDTA, 5% glycerol, 10 mM DTT, at pH = 7.2. (b) Time-dependent ratiometric fluorescence changes of C1RB (6 μM) incubated with caspase-1 (10 nM) over 2 h at room temperature. Data were obtained by plotting the normalized ratio of fluorescence intensity at 500 nm (F500 nm) over that at 450 nm (F450 nm). (Inset) time-dependent fluorescence emission spectra with λex = 350 nm. (c) Time-dependent “Turn-ON” effect of C1FS (6 μM) incubated with caspase-1 (10 nM) measured and normalized at 460 nm (F460 nm) over 2 h at room temperature, with the corresponding fluorescence emission spectra (inset). λex = 350 nm. (d) Normalized S/N ratio of each of the four caspase-1 probes (6 μM) incubated with 25 μg of BV2 lysates spiked with different concentrations of caspase-1 (37 °C, t = 2 h). S and N represent the fluorescence emission intensity of each reaction solution in the presence (S) and absence (N) of caspase-1. […] (−) no caspase; (caspase-1) 1.5 nM; (caspase-3) 0.8 nM; (caspase-6) 0.2 μM; (caspase-8) 10 nM; (caspase-9) 0.5 μM. […] Normalized, relative fluorescence (RFU) values were obtained after 2-h incubation at room temperature. […]

[4] = not given; remark: listed apart in the source

effect of inhibitor on C1RB/C1FS fluorescence signals in glucose-deprived neurons [1]: inhibited
Structure (SMILES): CCO[C@@H]1OC(=O)C[C@@H]1NC(=O)[C@@H]1CCCN2C(=O)CC[C@H](NC(=O)c3nccc4ccccc34)C(=O)N12 [Pralnacasan]

Structure (SMILES): CC(=O)N[C@@H](Cc1c[nH]c2ccccc12)C(=O)N[C@@H](CCC(=O)O)C(=O)N[C@@H](Cc1c[nH]cn1)C(=O)N[C@@H](CC(=O)O)C(=O)Nc1ccc2cc(C(C)=O)ccc2c1 [C1RB, Ac-WEHD-AAN] (Ac-WEHD-{NH(6-Ac-2-naphthyl)})
λex (absorption/excitation maximum): 316 nm | cytotoxicity [2]: minimally cytotoxic | λem (emission maximum) [3]: 448 nm | detection limit of caspase-1 activity (caspase-1): lowest detection limit | δΦ (two-photon action cross-section) [4]: 2.3 GM
